# Measurements reported in patent US20260042764A1, “COMPOSITIONS AND METHODS FOR INHIBITION OF KRAS” (TheRas, Inc., priority 2022, published 2026).
# Columns and labels:
# GP2d cells (KRAS G12D) = assay: Cell-based pERK HTRF assay in GP2d cell (Biological Example 2); conditions: GP2d (KRAS G12D) cells
# Outline: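 HTRF read-out of pERK (excitation 320 nm, emission 615 nm) after lysates sat 4–24 h at room temperature with Eu cryptate and d2 antibodies.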
# [1] = target: T1, Avi-KRAS G12D (2-169) GTP/RAF1 RBD-3xFLAG (51-131) (Homo sapiens, UniProt P01116, G12D); assay: Raf1-KRAS G12D-GTP disruption HTRF assay (Biological Example 3); assay type: binding; conditions: KRAS G12D, GTP-loaded
# T1 construct: Avi-KRAS G12D (2-169)
# T1 sequence (P01116 2-169 isoform P01116-2 G12D): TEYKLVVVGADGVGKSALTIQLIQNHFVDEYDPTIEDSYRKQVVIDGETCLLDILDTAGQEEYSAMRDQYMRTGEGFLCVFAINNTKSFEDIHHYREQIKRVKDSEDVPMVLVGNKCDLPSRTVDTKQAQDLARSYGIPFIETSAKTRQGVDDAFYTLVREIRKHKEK
# Protocol: (§1) Biological Example 3: Disrupting RAS-Effector Binding HTRF Assay
# (§2) A protein:protein interaction (PPI) Homogeneous Time Resolved Fluorescence (HTRF) assay was used to determine the effectiveness of compounds in disrupting KRAS protein and effector (RAF1) binding.
# (§3) The HTRF assay used the following reagents and proteins: (i) 50 nM Avi-KRAS G12D (2-169) GTP/RAF1 RBD-3xFLAG (51-131): (ii) 50 nM Avi-KRAS G12C (2-169) GTP/RAF1 RBD-3xFLAG (51-131): (iii) 50 nM Avi-KRAS G12V (2-169) GTP/RAF1 RBD-3xFLAG (51-131); (iv) 50 nM Avi-KRAS WT (2-169) GTP/RAF1 RBD-3xFLAG (51-131); and (v) 75 nM 3xFLAG-RAF1 RBD (51-131)-Avi. The assay buffer included: 50 mM Tris pH 7.5 (Invitrogen, 15567-027), 100 mM NaCl (Sigma, S5150-IL), 5 mM MgCl2 (Sigma, 63069), 0.1% BSA (Sigma, A7030), 0.01% Tween 20 (Sigma, P7949), 10% DMSO (Cell Signaling, 12611). The bead buffer included: 50 mM Tris pH 7.5 (Invitrogen, 15567-027), 0.01% Tween 20 (Sigma, P7949). An assay volume of 20 μL was used in a 384 well plate-low volume format. Compound titration: 30-0.005 μM, 3x dilution series.
# (§4) The HTRF assay employed the following protocol:
# (§5) Compounds were dispensed in assay plate (384-well, Grenier Bio-One #784075) using Echo (model 555) with dose response settings: 200 nL final volume, titration from 30 μM as a 10-point dilution series. Proteins and HTRF reagents were mixed and dispensed onto plates, 20 μL per well, and then incubated for 1 h at room temperature, with 700 rpm shaking.
# (§6) Plates were analyzed on an Envision plate reader using the following setting: Excitation 320 nm, Bandwidth 75 nm; Emission 615 nm, Bandwidth 85 nm; Gain 100%; Flashes 100; Lag 60 μs. Data was reported as percentage of activity, with DMSO as 100%. Data was plotted and analyzed using Prism 8.
# (§7) The biochemical Raf1-KRAS G12D/G12V/G12C/WT-GTP disruption assay IC50 of selected compounds described herein are shown in Table 12.
# [2] = target: T2, Avi-KRAS G12C (2-169) GTP/RAF1 RBD-3xFLAG (51-131) (Homo sapiens, UniProt P01116, G12C); assay: Raf1-KRAS G12C-GTP disruption HTRF assay (Biological Example 3); assay type: binding; conditions: KRAS G12C, GTP-loaded
# T2 construct: Avi-KRAS G12C (2-169)
# T2 sequence (P01116 2-169 isoform P01116-2 G12C): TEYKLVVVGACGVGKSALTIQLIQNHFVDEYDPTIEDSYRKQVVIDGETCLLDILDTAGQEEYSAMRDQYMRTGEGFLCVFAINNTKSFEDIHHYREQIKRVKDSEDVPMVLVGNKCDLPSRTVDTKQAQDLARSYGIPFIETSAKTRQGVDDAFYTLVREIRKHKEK
# Protocol: as §1, §2, §3, §4, §5, §6, §7
# [3] = target: T3, Avi-KRAS G12V (2-169) GTP/RAF1 RBD-3xFLAG (51-131) (Homo sapiens, UniProt P01116, G12V); assay: Raf1-KRAS G12V-GTP disruption HTRF assay (Biological Example 3); assay type: binding; conditions: KRAS G12V, GTP-loaded
# T3 construct: Avi-KRAS G12V (2-169)
# T3 sequence (P01116 2-169 isoform P01116-2 G12V): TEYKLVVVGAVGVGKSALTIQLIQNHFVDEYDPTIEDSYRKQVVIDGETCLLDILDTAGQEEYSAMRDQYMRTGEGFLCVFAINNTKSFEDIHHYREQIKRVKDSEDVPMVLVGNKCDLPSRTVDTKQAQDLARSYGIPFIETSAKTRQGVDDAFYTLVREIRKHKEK
# Protocol: as §1, §2, §3, §4, §5, §6, §7
# [4] = target: T4, Avi-KRAS WT (2-169) GTP/RAF1 RBD-3xFLAG (51-131) (Homo sapiens, UniProt P01116); assay: Raf1-KRAS WT-GTP disruption HTRF assay (Biological Example 3); assay type: binding; conditions: KRAS WT, GTP-loaded
# T4 construct: Avi-KRAS WT (2-169)
# T4 sequence (P01116 2-169 isoform P01116-2): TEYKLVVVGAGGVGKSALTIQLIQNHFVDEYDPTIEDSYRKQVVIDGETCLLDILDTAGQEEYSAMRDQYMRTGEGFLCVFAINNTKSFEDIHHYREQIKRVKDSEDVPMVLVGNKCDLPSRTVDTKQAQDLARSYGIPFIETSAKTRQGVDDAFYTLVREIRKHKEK
# Protocol: as §1, §2, §3, §4, §5, §6, §7
# SW620 cells (KRAS G12V) = assay: Cell-based pERK HTRF assay in SW620 cell (Biological Example 4)
# Outline: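 Read-out: HTRF pERK signal (excitation 320 nm, emission 615 nm) from lysates of SW620 cells after 4 h compound exposure. Dose range was 9 points, half-log steps from 1 μM, in 0.25% DMSO; antibody incubation ran 4–24 h at room temperature.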
# [5] = target: T5, Avi-KRAS G12D (1-169) GppNHp/RAF1 RBD-3xFLAG (52-151) (Homo sapiens, UniProt P01116, G12D); assay: Raf1-KRAS G12D-GppNHP disruption HTRF assay (Biological Example 1); assay type: binding; conditions: KRAS G12D-GppNHp/RAF1 RBD HTRF
# T5 construct: Avi-KRAS G12D (1-169)
# T5 sequence (P01116 1-169 isoform P01116-2 G12D): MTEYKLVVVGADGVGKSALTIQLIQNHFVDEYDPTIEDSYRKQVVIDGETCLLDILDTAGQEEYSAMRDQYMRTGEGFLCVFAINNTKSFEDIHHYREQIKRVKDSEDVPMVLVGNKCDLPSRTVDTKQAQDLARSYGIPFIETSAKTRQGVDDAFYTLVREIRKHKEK
# Outline: (§8)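 HTRF PPI disruption; buffer 50 mM Tris pH 7.5, 100 mM NaCl, 5 mM MgCl2, 0.1% BSA, 0.01% Tween, 10% DMSO. Protein mix 1 h RT shaking, reagent mix 1 h RT shaking. Data as % activity vs DMSO (100%).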
# [6] = target: T6, Avi-KRAS G12R (1-169) GppNHp/RAF1 RBD-3xFLAG (52-151) (Homo sapiens, UniProt P01116, G12R); assay: Raf1-KRAS G12R-GppNHP disruption HTRF assay (Biological Example 1); assay type: binding; conditions: KRAS G12R-GppNHp/RAF1 RBD HTRF
# T6 construct: Avi-KRAS G12R (1-169)
# T6 sequence (P01116 1-169 isoform P01116-2 G12R): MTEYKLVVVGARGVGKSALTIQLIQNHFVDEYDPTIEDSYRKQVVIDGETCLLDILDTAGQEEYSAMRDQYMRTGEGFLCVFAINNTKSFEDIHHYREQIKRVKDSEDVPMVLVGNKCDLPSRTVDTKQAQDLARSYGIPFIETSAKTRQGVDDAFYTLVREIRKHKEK
# Outline: as §8
# [7] = target: T7, Avi-KRAS G12V (1-169) GppNHp/RAF1 RBD-3xFLAG (52-151) (Homo sapiens, UniProt P01116, G12V); assay: Raf1-KRAS G12V-GppNHP disruption HTRF assay (Biological Example 1); assay type: binding; conditions: KRAS G12V-GppNHp/RAF1 RBD HTRF
# T7 construct: Avi-KRAS G12V (1-169)
# T7 sequence (P01116 1-169 isoform P01116-2 G12V): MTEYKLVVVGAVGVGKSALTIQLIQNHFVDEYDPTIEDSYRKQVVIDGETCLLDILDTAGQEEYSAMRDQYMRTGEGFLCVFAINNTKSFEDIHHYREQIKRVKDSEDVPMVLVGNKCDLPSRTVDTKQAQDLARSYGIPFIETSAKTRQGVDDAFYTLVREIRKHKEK
# Outline: as §8
# [8] = target: T8, Avi-KRAS WT (1-169) GppNHp/RAF1 RBD-3xFLAG (52-151) (Homo sapiens, UniProt P01116); assay: Raf1-KRAS WT-GppNHP disruption HTRF assay (Biological Example 1); assay type: binding; conditions: KRAS WT-GppNHp/RAF1 RBD HTRF
# T8 construct: Avi-KRAS WT (1-169)
# T8 sequence (P01116 1-169 isoform P01116-2): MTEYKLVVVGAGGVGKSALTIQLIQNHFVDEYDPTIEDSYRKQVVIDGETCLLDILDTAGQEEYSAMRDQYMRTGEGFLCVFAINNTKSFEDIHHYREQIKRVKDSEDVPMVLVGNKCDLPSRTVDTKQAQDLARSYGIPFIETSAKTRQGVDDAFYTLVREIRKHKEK
# Outline: as §8
# [9] = Homo sapiens, SW-620, SW620 (KRAS G12V) cells
# [10] = Homo sapiens, SW-620, SW620 (KRAS G12V) cells, pERK HTRF
SMILES,IC50 (GP2d cells (KRAS G12D); GP2d) [nM],IC50 [1] [nM],IC50 [2] [nM],IC50 [3] [nM],IC50 [4] [nM],IC50 (SW620 cells (KRAS G12V); [9]) [nM],IC50 (GP2d cells (KRAS G12D)) [nM],IC50 (SW620 cells (KRAS G12V); SW620 (KRAS G12V) cells) [nM],IC50 [5] [µM],IC50 [6] [µM],IC50 [7] [µM],IC50 [8] [nM],"IC50 (GP2d cells (KRAS G12D); GP2d, pERK HTRF) [nM]",IC50 (SW620 cells (KRAS G12V); [10]) [nM]
"C[C@H](c1cccnc1)N(C)c1nc(OC[C@@]23CCCN2C[C@H](F)C3)nc2c(F)c(-c3ccc(F)c4sc(N)c(C#N)c34)c(C(F)(F)F)cc12 (atropisomer, axis not shown; (aS)) [Compound 904, 2-amino-7-fluoro-4-((S)-8-fluoro-2-(((2R,7aS)-2-fluorotetrahydro-1H-pyrrolizin-7a(5H)-yl)methoxy)-4-(methyl((R)-1-(pyridin-3-yl)ethyl)amino)-6-(trifluoromethyl)quinazolin-7-yl)benzo[b]thiophene-3-carbonitrile]",< 100,1000 to 10000,1000 to 10000,1000 to 10000,1000 to 10000,< 100,,,,,,,,
CN(Cc1cnco1)c1nc(OC[C@@]23CCCN2C[C@H](F)C3)nc2c(F)c(-c3ccc(F)c4sc(N)c(C#N)c34)c(C(F)(F)F)cc12 [Compound 908],< 100,100 to 1000,1000 to 10000,1000 to 10000,1000 to 10000,< 100,,,,,,,,
N#Cc1c(N)sc2c(F)ccc(-c3c(C(F)(F)F)cc4c(N5CCc6ccncc6C5)nc(OC[C@@]56CCCN5C[C@H](F)C6)nc4c3F)c12 [Compound 942],< 100,> 10000,> 10000,> 10000,> 10000,100 to 1000,,,,,,,,
"CCN(c1nc(OC[C@@]23CCCN2C[C@H](F)C3)nc2c(F)c(-c3ccc(F)c4sc(N)c(C#N)c34)c(C(F)(F)F)cc12)[C@H]1CCN(C(=O)O[C@@H]2CCOC2)[C@@H]1C (atropisomer, axis not shown) [Compound 824]",< 100,100 to 1000,100 to 1000,100 to 1000,100 to 1000,< 100,,,,,,,,
"CCN(c1nc(OC[C@@]23CCCN2C[C@H](F)C3)nc2c(F)c(-c3ccc(F)c4sc(N)c(C#N)c34)c(C(F)(F)F)cc12)[C@H]1C[C@H]2CN(C3COC3)C(=O)N2C1 (atropisomer, axis not shown) [Compound 958]",< 100,100 to 1000,100 to 1000,100 to 1000,100 to 1000,< 100,,,,,,,,
CCN(c1nc(OC[C@@]23CCCN2C[C@H](F)C3)nc2c(F)c(-c3ccc(F)c4sc(N)c(C#N)c34)c(C(F)(F)F)cc12)[C@H]1CCN(C(=O)C2CC2(F)F)[C@@H]1C (stereo partly shown) [Compound 888],< 100,100 to 1000,100 to 1000,100 to 1000,100 to 1000,< 100,,,,,,,,
"CCN(c1nc(OC[C@@]23CCCN2C[C@H](F)C3)nc2c(F)c(-c3ccc(F)c4sc(N)c(C#N)c34)c(C(F)(F)F)cc12)[C@H]1C[C@H](COC)N(C(=O)[C@H]2CCO2)C1 (atropisomer, axis not shown) [Compound 840]",< 100,100 to 1000,100 to 1000,100 to 1000,100 to 1000,< 100,,,,,,,,
CCN(c1nc(OCC23CCCN2CC(F)C3)nc2c(F)c(-c3ccc(F)c4sc(N)c(C#N)c34)c(C(F)(F)F)cc12)C1CCN(C(=O)c2nc(C)ns2)C1 (stereo not shown) [Compound 932],< 100,100 to 1000,100 to 1000,1000 to 10000,1000 to 10000,< 100,,,,,,,,
"CCN(c1nc(OC[C@@]23CCCN2C[C@H](F)C3)nc2c(F)c(-c3ccc(F)c4sc(N)c(C#N)c34)c(C(F)(F)F)cc12)[C@H]1CCN(C(=O)C(CF)CF)C1 (atropisomer, axis not shown) [Compound 857]",< 100,100 to 1000,100 to 1000,100 to 1000,100 to 1000,< 100,,,,,,,,
CCN(c1nc(OCC23CCCN2CC(F)C3)nc2c(F)c(-c3ccc(F)c4sc(N)c(C#N)c34)c(C(F)(F)F)cc12)C1CCN(C(=O)c2cnc(C#N)s2)C1 (stereo not shown) [Compound 960],,100 to 1000,100 to 1000,100 to 1000,1000 to 10000,,< 100,< 100,,,,,,
"CCN(c1nc(OC[C@@]23CCCN2C[C@H](F)C3)nc2c(F)c(-c3ccc(F)c4sc(N)c(C#N)c34)c(C(F)(F)F)cc12)[C@H]1CC[C@H](C(=O)N(C)C)C1 (atropisomer, axis not shown) [Compound 660]",< 100,100 to 1000,1000 to 10000,1000 to 10000,100 to 1000,< 100,,,,,,,,
"CCN(c1nc(OC[C@@]23CCCN2C[C@H](F)C3)nc2c(F)c(-c3ccc(F)c4sc(N)c(C#N)c34)c(C(F)(F)F)cc12)[C@H]1CCN(C(=O)c2ccc(C#N)s2)C1 (atropisomer, axis not shown) [Compound 952]",< 100,100 to 1000,100 to 1000,100 to 1000,1000 to 10000,< 100,,,,,,,,
"CCN(c1nc(OC[C@@]23CCCN2C[C@H](F)C3)nc2c(F)c(-c3ccc(F)c4sc(N)c(C#N)c34)c(C(F)(F)F)cc12)[C@H]1C[C@H](C(=O)N(C)C)C1 (atropisomer, axis not shown) [Compound 950]",,100 to 1000,100 to 1000,100 to 1000,100 to 1000,,,,,,,,,
CC(=O)N1CC[C@](C)(N(C)c2nc(OC[C@@]34CCCN3C[C@H](F)C4)nc3c(F)c(-c4ccc(F)c5sc(N)c(C#N)c45)c(C(F)(F)F)cc23)C1 [Compound 505],,,,,,,,,1 to 10,1 to 10,1 to 10,1000 to 10000,< 100,100 to 1000
C[C@H]1N(C(=O)C2CC2)CC[C@@]1(C)N(C)c1nc(OC[C@@]23CCCN2C[C@H](F)C3)nc2c(F)c(-c3ccc(F)c4sc(N)c(C#N)c34)c(C(F)(F)F)cc12 [Compound 344],,,,,,,,,1 to 10,> 10,1 to 10,100 to 1000,< 100,100 to 1000
